Source: article PMC467089, “Click estradiol dimers with novel aromatic bridging units: synthesis and anticancer evaluation” (Journal of Enzyme Inhibition and Medicinal Chemistry, 2024)
“Also recorded” adds a separate entry of the source.

How the values were obtained:
[1] = system: A549 (lung adenocarcinoma); assay: MTS cytotoxicity assay, A549; assay type: cell-based, human; conditions: Homo sapiens, A549, 72 h, read-out: IC50 cytotoxic activity A549
Method in brief: (§1)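 MTS read-out after 72 h compound exposure at 37 °C. Cells plated the day before, treated with fourfold serial dilutions from DMSO stocks; duplicate wells, three independent experiments.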

HUVEC cells = assay: Endothelial cell tube formation angiogenesis assay; assay type: cell-based, human; conditions: 60 nM, 24 h, Matrigel
Method: The experiment was performed in 96-well plates pre-coated with 50 μL of growth factor reduced basement membrane matrix Matrigel (Corning, Corning, NY). The coating was set by incubating the plates for 1 h at 37 °C. Subsequently, HUVEC cells were seeded at a density of 15 000 cells per well, and dissolved test substances were added to this layer in a total volume of 100 μL. The assay plates were then incubated for 24 h to facilitate endothelial tube formation. After this incubation, the cells were stained with Hoechst 33342 (Thermo Fisher Scientific, Waltham, MA) to a final concentration of 10 μM and calcein AM (Invitrogen, Carlsbad, CA) to a final concentration of 2 µg/mL for 30 min, followed by visualisation in DIC and fluorescent modes using a Zeiss fluorescent microscope (Oberkochen, Germany).

[2] = system: K562-TAX (paclitaxel-resistant variant of K562); assay: MTS cytotoxicity assay, K562-TAX; assay type: cell-based, human; conditions: Homo sapiens, K562-Tax, 72 h, read-out: IC50 cytotoxic activity K562-TAX
Method in brief: as §1

U2OS cells = assay: Immunofluorescence of microtubules / mitotic spindle; assay type: cell-based, human; conditions: 1 µM, 24-h incubation
Text: In addition, the presence of aster-like tubulin structures indicated the failure in microtubule elongation (Figure 4, ED5). […] The observed intracellular effects of ED3 and ED5 are consistent with data from in vitro assembly assays and cell cycle analyses, thereby strongly supporting the proposed antimitotic mechanisms of these EDs. […] Importantly, cytotoxic IC50 values may vary depending on the duration of exposure to the drug. A more extended exposure could lead to a decrease in the IC50 value, and vice versa. This temporal factor could also contribute to the observed differential sensitivity among the cell lines. The detailed mechanism and the extent to which these cellular and molecular dynamics (MD) contribute to the observed phenomenon might necessitate further investigation and experimentation.
U2OS cells, cultivated on coverslips, underwent a PBS wash and were then fixed in a solution of 3% paraformaldehyde in a buffer containing 10 mM MES, 150 mM NaCl, 5 mM EGTA, 5 mM MgCl2, 5 mM glucose, adjusted to a pH of 6.1. The nuclei were made visible using Hoechst 33342. Subsequently, a 60-min blocking step with 5% goat serum in PBS (SpinChem, Seattle, WA) was followed by a 60-min incubation with α-tubulin (DM1A) mouse monoclonal antibody (Cell Signaling, Danvers, MA) in PBS supplemented with 1% BSA and 0.3% Triton X-100. Visualisation was achieved using Alexa Fluor-488 conjugated anti-mouse antibodies (Life Technologies, Carlsbad, CA). Between each step, the samples underwent a series of three 5-min washes with PBS. Finally, the samples were mounted using Vectashield Mounting Medium with DAPI and imaged utilising a Zeiss spinning disk confocal microscope equipped with CSU-X1 unit (Yokogawa, Musashino, Japan)[10].

[3] = MTS cytotoxicity assay, BJ; assay type: cell-based; conditions: human
Method in brief: as §1

[4] = MTS cytotoxicity assay, MRC-5; assay type: cell-based; conditions: human
Method in brief: as §1

[5] = system: CEM-DNR (daunorubicin resistant variant of CCRF-CEM); assay: MTS cytotoxicity assay, CEM-DNR; assay type: cell-based, human; conditions: Homo sapiens, CEM-DNR, 72 h, read-out: IC50 cytotoxic activity CEM-DNR
Method in brief: as §1

[6] = MTS cytotoxicity assay, HUVEC; assay type: cell-based; conditions: human
Method in brief: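 Overnight-seeded cells → fourfold serial compound dilutions (DMSO) → 72 h, 37 °C, 5% CO2 → MTS added. Duplicates ×3 biological reps.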

U2OS (osteosarcoma) = assay: MTS cytotoxicity assay, U2OS; assay type: cell-based, human; conditions: Homo sapiens, U2OS, 72 h, read-out: IC50 cytotoxic activity U2OS
Method in brief: as §1

porcine brain tubulin [7] = biological target: T1, porcine brain tubulin (Sus scrofa, UniProt P02550+P02554); design: method as in PMID 36592487; conditions: dimers of the previous study; ref [10]; cited from earlier work
T1 construct: Polymerisation of porcine brain tubulin (>99% purity) was measured; purchased Cytoskeleton, Denver, CO; host or cells: porcine brain (tissue-purified)

[8] = system: HCT116 (colorectal adenocarcinoma); assay: MTS cytotoxicity assay, HCT116; assay type: cell-based; conditions: Homo sapiens, HCT-116, 72 h, read-out: IC50 cytotoxic activity HCT116
Method in brief: as §1

[9] = system: HCT116p53−/− (p53 gene null variant of HCT116); assay: MTS cytotoxicity assay, HCT116p53−/−; assay type: cell-based; conditions: Homo sapiens, HCT-116, 72 h, read-out: IC50 cytotoxic activity HCT116p53-
Method in brief: as §1

[10] = system: K562 (chronic myelogenous leukaemia); assay: MTS cytotoxicity assay, K562; assay type: cell-based; conditions: Homo sapiens, K562, 72 h, read-out: IC50 cytotoxic activity K562
Method in brief: as §1

CCRF-CEM lymphoblasts [11] = assay: Phospho-histone H3 (Ser10) mitotic marker, flow cytometry; assay type: cell-based, human
Method in brief: (§2)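 CCRF-CEM cells treated 24 h, then fixed in cold 70% ethanol, permeabilised with 0.25% Triton X-100 and stained with anti-phospho-histone H3 (Ser10). After 50 μg/mL RNase and propidium iodide, analysed by flow cytometry at 488 nm; sub-G1 events counted as non-viable with fragmented DNA.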

CCRF-CEM lymphoblasts [12] = assay: BrU incorporation analysis (RNA synthesis); assay type: cell-based, human
Method in brief: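 CCRF-CEM cells were treated with compounds for 24 h, then pulsed with 1 mM BrU for 30 min and fixed in 1% paraformaldehyde/0.05% NP-40. BrU was detected with a cross-reacting anti-BrdU antibody and FITC secondary, with propidium iodide/RNase counterstain; value is percentage of BrU-positive cells by flow cytometry.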

[13] = system: CCRF-CEM (childhood T-cell acute lymphoblastic leukaemia); assay: MTS cytotoxicity assay, CCRF-CEM; assay type: cell-based; conditions: Homo sapiens, 72 h, read-out: IC50 cytotoxic activity CCRF-CEM
Method in brief: as §1

porcine brain tubulin [14] = biological target: T1, porcine brain tubulin; assay: Tubulin polymerisation assay; assay type: biochemical; conditions: 10 μmol/L, Vmax relative to DMSO
Method in brief: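 Porcine brain tubulin (>99% pure) was polymerised at 37 °C with 10 μmol/L test compound or DMSO and monitored on a plate reader. Vmax was derived from the polymerisation curves.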

CCRF-CEM lymphoblasts [15] = assay: BrDU incorporation analysis (DNA synthesis); assay type: cell-based, human
Method in brief: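 CCRF-CEM cells exposed to compounds for 24 h, pulse-labelled 30 min before harvest with 10 μM BrDU, ethanol-fixed, HCl-denatured, stained with anti-BrdU/FITC plus propidium iodide and RNase. Flow cytometry (488 nm) gives the percentage of BrDU-positive cells.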

CCRF-CEM lymphoblasts [16] = assay: Cell cycle analysis by flow cytometry (propidium iodide); assay type: cell-based, human
Method in brief: as §2

T1 sequence (P02550 whole entry): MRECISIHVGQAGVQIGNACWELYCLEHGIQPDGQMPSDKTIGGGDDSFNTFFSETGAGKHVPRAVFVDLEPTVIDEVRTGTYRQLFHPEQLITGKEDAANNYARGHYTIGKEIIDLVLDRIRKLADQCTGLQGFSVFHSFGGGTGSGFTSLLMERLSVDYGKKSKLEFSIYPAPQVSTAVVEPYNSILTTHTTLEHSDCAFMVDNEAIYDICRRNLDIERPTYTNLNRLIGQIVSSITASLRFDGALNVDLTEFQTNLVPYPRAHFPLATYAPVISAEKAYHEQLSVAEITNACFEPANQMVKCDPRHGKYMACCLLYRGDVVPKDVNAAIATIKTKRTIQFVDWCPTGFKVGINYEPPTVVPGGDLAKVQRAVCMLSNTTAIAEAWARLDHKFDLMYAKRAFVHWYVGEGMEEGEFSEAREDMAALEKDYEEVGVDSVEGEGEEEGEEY
T1 sequence (P02554 whole entry): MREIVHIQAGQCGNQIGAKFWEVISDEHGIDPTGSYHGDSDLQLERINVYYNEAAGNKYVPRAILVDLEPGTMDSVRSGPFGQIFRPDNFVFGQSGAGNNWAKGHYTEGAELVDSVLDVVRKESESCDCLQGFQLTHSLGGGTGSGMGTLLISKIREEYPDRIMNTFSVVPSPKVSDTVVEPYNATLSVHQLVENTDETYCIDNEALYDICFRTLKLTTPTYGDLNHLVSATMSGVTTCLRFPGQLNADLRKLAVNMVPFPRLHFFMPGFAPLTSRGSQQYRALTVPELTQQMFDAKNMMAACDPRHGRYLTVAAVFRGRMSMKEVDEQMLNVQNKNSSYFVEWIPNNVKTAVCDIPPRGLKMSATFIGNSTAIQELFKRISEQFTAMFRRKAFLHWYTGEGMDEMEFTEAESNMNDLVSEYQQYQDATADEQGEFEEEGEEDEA

Question: Which IC50 [1] does the source give for `COc1cc2c(c(OC)c1OC)-c1ccc(OC)c(=O)cc1[C@@H](NC(C)=O)CC2` [Colchicine, reference compound] here?
Answer: The IC50 was 0.047 ± 0.028 µM.

Question: And the “endothelial cell tube formation (in words)” value (HUVEC cells)?
Answer: Its value is “prevented endothelial cell tube formation”.

Question: What about the IC50 [2] of the same molecule?
Answer: Its IC50 is 1.83 ± 0.19 µM.

Question: And the “microtubule organisation in mitotic cells (in words)” value (U2OS cells)?
Answer: Its value is “complete absence of the spindle with diffuse tubulin signal”.

Question: And the IC50 at 72 h ([3]; MTS assay, 72-h incubation, mean ± SD of 3 independent experiments, read-out: IC50 cytotoxic activity BJ)?
Answer: Its IC50 at 72 h is over 50 µM.

Question: And the IC50 at 72 h ([4]; MTS assay, 72-h incubation, mean ± SD of 3 independent experiments, read-out: IC50 cytotoxic activity MRC-5)?
Answer: Its IC50 at 72 h is 0.055 ± 0.029 µM.

Question: And the IC50 [5]?
Answer: Its IC50 is 1.02 ± 0.21 µM.

Question: What about the IC50 at 72 h ([6]; MTS assay, 72-h incubation, mean ± SD of 3 independent experiments, read-out: IC50 cytotoxic activity HUVEC) of the same molecule?
Answer: Its IC50 at 72 h is under 0.0122 µM.

Question: What about the IC50 (U2OS (osteosarcoma)) of the same molecule?
Answer: Its IC50 is 0.028 ± 0.014 µM.

Question: With `C[C@]12CC[C@@H]3c4ccc(O)cc4CC[C@H]3[C@@H]1CC[C@@]2(O)c1cn(CCCCCn2cc([C@]3(O)CC[C@H]4[C@@H]5CCc6cc(O)ccc6[C@H]5CC[C@@]43C)nn2)nn1` [D1] as the molecule, how does the Tubulin polymerisation inhibition (porcine brain tubulin [7]) read?
Answer: The Tubulin polymerisation inhibition was 65.0%.

Question: With `C[C@]12CC[C@@H]3c4ccc(O)cc4CC[C@H]3[C@@H]1CC[C@@]2(O)c1cn(CCOCCn2cc([C@]3(O)CC[C@H]4[C@@H]5CCc6cc(O)ccc6[C@H]5CC[C@@]43C)nn2)nn1` [D2] as the molecule, how does the Tubulin polymerisation inhibition (porcine brain tubulin [7]) read?
Answer: Its Tubulin polymerisation inhibition is 79.1%.

Question: For `C[C@]12CC[C@@H]3c4ccc(O)cc4CC[C@H]3[C@@H]1CC[C@@]2(O)c1cn(CCNCCn2cc([C@]3(O)CC[C@H]4[C@@H]5CCc6cc(O)ccc6[C@H]5CC[C@@]43C)nn2)nn1` [D3], which Tubulin polymerisation inhibition (porcine brain tubulin [7]) is on record?
Answer: The Tubulin polymerisation inhibition was 36.8%.

Question: For `COc1cc(CN(CCn2cc([C@]3(O)CC[C@H]4[C@@H]5CCc6cc(O)ccc6[C@H]5CC[C@@]43C)nn2)CCn2cc([C@]3(O)CC[C@H]4[C@@H]5CCc6cc(O)ccc6[C@H]5CC[C@@]43C)nn2)ccc1O` [D9], which Tubulin polymerisation inhibition (porcine brain tubulin [7]) is on record?
Answer: Its Tubulin polymerisation inhibition is 49.6%.

Question: With `C[C@]12CC[C@@H]3c4ccc(O)cc4CC[C@H]3[C@@H]1CC[C@@]2(O)c1cn(Cc2ccc(O)c(Cn3cc([C@]4(O)CC[C@H]5[C@@H]6CCc7cc(O)ccc7[C@H]6CC[C@@]54C)nn3)n2)nn1` [ED12, 17,17′-[(3-Hydroxypyridine-2,6-diyl)bis(methylene-1H-1,2,3-triazole-1,4-diyl)]di[estra-1,3,5(10)-triene-3,17β-diol]] as the molecule, how does the IC50 [8] read?
Answer: The IC50 was 8.78 ± 0.88 µM.

Question: What about the IC50 [9] of the same molecule?
Answer: The IC50 was 10.5 ± 2.48 µM.

Question: What about the IC50 [1] of the same molecule?
Answer: The IC50 was over 50 µM.

Question: And the IC50 [10]?
Answer: The IC50 was 4.52 ± 0.64 µM.

Question: And the “pH3Ser10, % of positive cells” value (CCRF-CEM lymphoblasts [11]; 1×IC50, 24 h)?
Answer: Its value is 13.49%.

Question: And the “pH3Ser10, % of positive cells” value (CCRF-CEM lymphoblasts [11]; 5×IC50, 24 h)?
Answer: The value was 47.08%.

Question: And the IC50 [2]?
Answer: The IC50 was over 50 µM.

Question: What about the IC50 at 72 h [3] of the same molecule?
Answer: The IC50 at 72 h was 11.3 ± 1.41 µM.

Question: And the “BrU, % of positive cells” value (CCRF-CEM lymphoblasts [12]; 1×IC50, 24 h)?
Answer: The value was 33.92%.

Question: What about the “BrU, % of positive cells” value (CCRF-CEM lymphoblasts [12]; 5×IC50, 24 h) of the same molecule?
Answer: The value was 8.14%.

Question: And the IC50 [13]?
Answer: Its IC50 is 6.14 ± 0.93 µM.

Question: And the “inhibitory activity against tubulin polymerisation (in words)” value (porcine brain tubulin [14])?
Answer: The value was “comparable or better inhibitory activity; also recorded: comparable to that of the original ED”.

Question: What about the IC50 at 72 h [4] of the same molecule?
Answer: The IC50 at 72 h was 14.2 ± 3.52 µM.

Question: What about the IC50 [5] of the same molecule?
Answer: The IC50 was over 50 µM.

Question: What about the IC50 at 72 h [6] of the same molecule?
Answer: Its IC50 at 72 h is 0.657 ± 0.132 µM.

Question: What about the “BrDU, % of positive cells” value (CCRF-CEM lymphoblasts [15]; 1×IC50, 24 h) of the same molecule?
Answer: The value was 12.43%.

Question: And the “BrDU, % of positive cells” value (CCRF-CEM lymphoblasts [15]; 5×IC50, 24 h)?
Answer: The value was 7.46%.

Question: What about the IC50 (U2OS (osteosarcoma)) of the same molecule?
Answer: Its IC50 is 16.8 ± 3.46 µM.

Question: And the “<G1 (sub-G1, fragmented DNA), % of positive cells” value (CCRF-CEM lymphoblasts [16]; 1×IC50, 24 h)?
Answer: Its value is 11.00%.

Question: What about the “>G2/M (polyploidy), % of positive cells” value (CCRF-CEM lymphoblasts [16]; 1×IC50, 24 h) of the same molecule?
Answer: The value was 17.19%.

Question: What about the “G0/G1, % of positive cells” value (CCRF-CEM lymphoblasts [16]; 1×IC50, 24 h) of the same molecule?
Answer: Its value is 4.79%.

Question: And the “G2/M, % of positive cells” value (CCRF-CEM lymphoblasts [16]; 1×IC50, 24 h)?
Answer: Its value is 66.70%.

Question: And the “S, % of positive cells” value (CCRF-CEM lymphoblasts [16]; 1×IC50, 24 h)?
Answer: The value was 28.50%.

Question: And the “<G1 (sub-G1, fragmented DNA), % of positive cells” value (CCRF-CEM lymphoblasts [16]; 5×IC50, 24 h)?
Answer: Its value is 16.07%.

Question: What about the “>G2/M (polyploidy), % of positive cells” value (CCRF-CEM lymphoblasts [16]; 5×IC50, 24 h) of the same molecule?
Answer: The value was 14.18%.

Question: What about the “G0/G1, % of positive cells” value (CCRF-CEM lymphoblasts [16]; 5×IC50, 24 h) of the same molecule?
Answer: The value was 22.95%.

Question: And the “G2/M, % of positive cells” value (CCRF-CEM lymphoblasts [16]; 5×IC50, 24 h)?
Answer: The value was 32.79%.

Question: What about the “S, % of positive cells” value (CCRF-CEM lymphoblasts [16]; 5×IC50, 24 h) of the same molecule?
Answer: The value was 44.26%.

Question: With `Cc1ccc(C(=O)Nc2ccc(S(=O)(=O)O)c3cc(S(=O)(=O)O)cc(S(=O)(=O)O)c23)cc1NC(=O)c1cccc(NC(=O)Nc2cccc(C(=O)Nc3cc(C(=O)Nc4ccc(S(=O)(=O)O)c5cc(S(=O)(=O)O)cc(S(=O)(=O)O)c45)ccc3C)c2)c1` [suramine] as the molecule, how does the “endothelial cell tube formation (in words)” value (HUVEC cells) read?
Answer: The value was “prevented endothelial cell tube formation”.
